Data set [1] concerns Reconstructed Human Epidermis (RHE) keratinocytes. In words: MTT assay of keratinocyte vitality on the RHE. Format: cell-based. Particulars: MTT assay on RHE at 24 hour instant. As for the experimental part:
Keratinocyte vitality was ascertained using the MTT assay: MTT salt (3-(4,5-dimetil-tiaol-2-il)-2,5 diphenyltetrazolium bromide) may be reduced through the mitochondrial enzyme succinate-dehydrogenase found in living cells. The reduction product, formazan crystals, may be quantified by optic density at […] and is proportional to the number of living cells. The MTT assay was performed on the RHE at the 24 hour instant.
(In general: Tetrazolium dyes change colour on reduction, which living cells bring about.)

A short description of data set [2]: Transepidermal water loss (TEWL) after topical application in volunteers. The data set is classed as in vivo, human. Particulars: 5% ingredient applied topically, ten volunteers. The text has this:
The clinical efficiency of bio-compatible liquid crystals generated by cetearyl-olivate, sorbitan-olivate was clinically verified. Firstly, its skin biocompatibility was verified in a study on its effect on transepidermal water loss (TEWL) with respect to other lipidic compositions. TEWL is a convalidated method for assessing the skin permeability barrier function (Fluhr, 2006). Ten volunteers have applied topically identical concentrations (5%) of the following ingredients: cetearyl-olivate, sorbitan-olivate; cetearyl alcohol, cetearyl-glucoside and poliglyceril-3 methylglucose distearate. The results—see FIG. 4—have shown that the application of cetearyl-olivate, sorbitan-olivate reduced the increase of TEWL by 29% over control formulae (FIG. 2).

We go through two compounds from patent publication US8796217B2, “Use of transesterified olive oil in the cosmetic field” (Hallstar Italia S.R.L., priority 2008, dated 2014).

Take `Cn1c(=O)c2c(ncn2C)n(C)c1=O` [Control (pure caffeine), caffeine]: the “Cell vitality (%)” value in data set [1] is reported as 100%.

As for poliglyceril-3 methylglucose distearate, the “induced TEWL / water loss following application” value in data set [2] was “activate excessive water loss following application”.
